# Experimental data: US8598355B2, “Amide compound” (Astellas Pharma Inc., priority 2008, dated 2013)
# Tests used:
# rat EP4 receptor [1] = target: T1, rat EP4 receptor (Rattus norvegicus, UniProt P43114); experiment: Evaluation test of rat EP4 receptor affinity ([3H]PGE2 binding, membrane fraction of HEK293 cells expressing rat EP4); set-up: expressed in transfected cells; host or cells: HEK293 cells, transient transfection with Lipofectamine 2000; membrane fraction; settings: [3H]PGE2 0.3 nM
# Protocol: Evaluation Test of Rat EP4 Receptor Affinity
# Cell Culturing and Transfection
# Using a 10 cm collagen-coated dish (Asahi Glass), HEK293 cells were cultured in D-MEM culture medium, the culture medium was removed at a confluence (90 to 100% density state) and washed with a phosphate buffer saline (PBS), and then the cells were detached with N,N,N′,N′-tetrakis(carboxymethyl)ethylenediamine (EDTA). The number of the cells were counted and seeded on a 15 cm collagen-coated dish to a confluence of 70%. On the next day, to an Opti-MEM culture medium at 1.2 mL/dish was added Lipofectamine 2000 (Invitrogen) at 60 μL/dish, followed by leaving to stand at room temperature for 5 minutes. A plasmid in which rat EP4 (Sequence Number 1) had been inserted into a TA cloning site of pcDNA3.1-V5-His-topo was added thereto at 15 μg/dish. After leaving to stand at room temperature for 30 minutes, the resultant was added to the dish and cultured for 20 to 24 hours. The cell culture was carried out in a CO2 incubator (37° C., 5% CO2).
# Preparation of Membrane Fraction
# The culture medium was removed by suction, 10 mL of cooled PBS was added thereto per 15 cm dish, and the cells were scraped using a cell scraper (Sumitomo Bakelite). They were washed with cooled PBS (1,200 rpm, 4° C., 5 min), and then suspended in 6 mL of cooled 20 mM Tris-HCl (pH 7.4; Nakalai Tesque Inc., including 5 mM EDTA (Nakalai Tesque Inc.) per dish and the resultant was homogenized using a Polytron and the homogenate was centrifuged (26,000 rpm, 20 min, 4° C.). The obtained precipitate was resuspended in cooled 20 mM Tris-HCl and homogenized again using a Polytron, and the homogenate was centrifuged (26,000 rpm, 20 min, 4° C.). The obtained precipitate was resuspended in 50 mM HEPES (pH 7.5; Dojindo Laboratories) at 1 mL per dish, homogenized using a Polytron, and freeze-stored at −80° C. as a membrane fraction. At this time, a part thereof was used for the measurement of the protein concentration. Measurement of the protein concentration was carried out in duplicate using a Bio-Rad Protein assay kit (Bio-Rad Laboratories) in accordance with the appended standard Protocol.
# [^3H]PGE2 50 μL (final concentration 0.3 nM; Perkin Elmer), 100 μL (20 μg/well) of a membrane fraction prepared from the rat EP4 expression cell and 50 μL of a test compound were mixed in a 96-well microplate (Sumitomo Bakelite), incubated at room temperature for 1 hour, filtered by suction on a UniFilter-96 GF/B (Perkin Elmer) using a FilterMate Harvester (Perkin Elmer), and then washed three times with 300 μL/well of a cooled assay buffer. Dilution of [^3H]PGE2 and the membrane fraction was carried out using an assay buffer (50 mM HEPES, 10 mM MgCl2), and dilution of the test compound and the unlabeled PGE2 was carried out using DMSO and an assay buffer. Further, in the case of the addition of a human serum albumin (HSA), dilution was carried out using an assay buffer containing 4% HSA (final concentration 1%; Sigma). The UniFilter-96 GF/B was treated preliminarily by washing twice with 200 μL/well of a cooled assay buffer. The UniFilter-96 GF/B after filtration was dried in a dryer overnight, 50 μL/well of MicroScint20 (Perkin Elmer) was added thereto, and then the radioactivity was measured using a TopCount (Perkin Elmer). For measurement of the non-specific binding, an unlabeled PGE2 (final concentration 1 μM; Cayman) was added. All of the measurements were carried out in duplicate, and the specific binding amount was determined by subtracting the non-specific binding amount from the total binding amount. The Ki value was calculated according to the general methods.
# In the connection, Ex represents the below-described Example Compound number.
# rat EP4 receptor [2] = target: T1, rat EP4 receptor; experiment: In vivo rat EP4 receptor antagonistic activity (ONO-4819/LPS, plasma TNF-α); settings: SD rat, oral
# Protocol: Evaluation Test of In Vivo Rat EP4 Receptor Antagonistic Activity
# A solution of PEG 400:20% Tween 80:aqueous 1 M NaHCO3 solution=1:4:5 of a test compound was orally administered to a SD rat (male, 6-week old) under non-fasting conditions, and after 1 hour, ONO-4819 was administered subcutaneously to the back of the rat. After 30 minutes, Lipopolysaccharide (LPS, 0.01 mg/kg) was administered to the tail vein without anesthesia, and after 60 minutes, 0.5 mL of heparin blood was collected from the fundus under ether anesthesia. The blood sample was centrifuged (3000 rpm, 10 minutes) to separate the plasma, and then the TNF-α concentration in the rat plasma was measured by an ELISA kit (see Hepatology Research Journal, vol. 21, 252-260, 2001). A value obtained by subtracting the TNF-α concentration of the group treated with ONO-4819 from the TNF-α concentration of the group not treated with ONO-4819 was taken as 100%, and the inhibitory rates to the value were calculated for the test compounds.
# In this connection, Ex represents the below-described Example compound number.
# T1 sequence (P43114 whole entry): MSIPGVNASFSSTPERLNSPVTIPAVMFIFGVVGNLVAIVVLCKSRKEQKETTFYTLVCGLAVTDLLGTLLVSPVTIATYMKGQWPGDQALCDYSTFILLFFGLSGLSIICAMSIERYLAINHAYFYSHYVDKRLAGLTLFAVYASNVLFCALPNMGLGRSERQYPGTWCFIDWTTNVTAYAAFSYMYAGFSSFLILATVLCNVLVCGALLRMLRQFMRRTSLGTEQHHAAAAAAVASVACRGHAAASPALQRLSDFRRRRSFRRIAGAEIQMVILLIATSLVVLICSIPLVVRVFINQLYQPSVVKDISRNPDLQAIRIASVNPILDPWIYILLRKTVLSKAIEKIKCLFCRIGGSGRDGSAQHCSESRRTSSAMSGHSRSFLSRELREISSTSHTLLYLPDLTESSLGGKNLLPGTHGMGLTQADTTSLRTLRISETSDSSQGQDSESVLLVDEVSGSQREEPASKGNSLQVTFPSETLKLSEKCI
SMILES,Ki (rat EP4 receptor [1]) [nM],further results
O=C(NC[C@H]1CC[C@H](C(=O)O)CC1)c1cccc2ccn(Cc3ccc(Cl)cc3)c12 [Example 32],12,
CN(NC(=O)c1cccc2ccn(Cc3csc(-c4ccccc4)n3)c12)c1ccc(C(=O)O)cc1 [Example 207],1.1,Inhibitory rate (%) (rat EP4 receptor [2]; dose 0.03 mg/kg): 83%
C[C@H](NC(=O)c1cccc2ccn(Cc3coc(-c4ccccc4)n3)c12)c1ccc(C(=O)O)cc1 [Example 140],0.61,
O=C(O)c1ccc(CNC(=O)c2cc(C(F)(F)F)cc3ccn(Cc4csc(-c5ccccc5)n4)c23)cc1 [Example 212],2.4,Inhibitory rate (%) (rat EP4 receptor [2]; dose 0.01 mg/kg): 52%
O=C(NC[C@H]1CC[C@@H](C(=O)O)CC1)c1cccc2ccn(Cc3ccc(Cl)cc3)c12 [Example 137],9.1,
CN(NC(=O)c1cccc2ccn(CCOc3ccc(Cl)cc3)c12)c1ccc(C(=O)O)cc1 [Example 23],0.35,Inhibitory rate (%) (rat EP4 receptor [2]; dose 0.01 mg/kg): 51%
O=C(O)c1ccc(CNC(=O)c2cc(Cl)cc3ccn(Cc4csc(-c5ccccc5)n4)c23)cc1 [Example 208],1.8,Inhibitory rate (%) (rat EP4 receptor [2]; dose 0.01 mg/kg): 35%
C[C@H](NC(=O)c1cccc2ccn(Cc3ccc(N4CCCCC4)nc3)c12)c1ccc(C(=O)O)cc1 [Example 132],2.6,
O=C(O)c1ccc(CNC(=O)c2cc(Cl)cc3ccn(CCOc4ccc(Cl)cc4)c23)cc1 [Example 211],1.7,Inhibitory rate (%) (rat EP4 receptor [2]; dose 0.01 mg/kg): 43%
"C[C@H](NC(=O)c1cccc2ccn(Cc3ccc(Cl)cc3)c12)c1ccc(C(=O)NS(=O)(=O)CCCO)cc1 [Example 6, 1-(4-chlorobenzyl)-N-[(1S)-1-(4-{[(3-hydroxypropyl)sulfonyl]carbamoyl}phenyl)ethyl]-1H-indole-7-carboxamide]",31,
C[C@H](NC(=O)c1cccc2ccn(Cc3ccc(-c4ccccc4)cn3)c12)c1ccc(C(=O)O)cc1 [Example 115],1,Inhibitory rate (%) (rat EP4 receptor [2]; dose 0.03 mg/kg): 60%
O=C(O)c1ccc(CNC(=O)c2cc(Cl)cc3ccn(Cc4cc5ccccc5cn4)c23)cc1 [Example 143],1,Inhibitory rate (%) (rat EP4 receptor [2]; dose 0.03 mg/kg): 70%
O=C(NC[C@H]1CC[C@H](C(=O)O)CC1)c1cccc2ccn(Cc3cc4ccccc4s3)c12 [Example 206],1.2,Inhibitory rate (%) (rat EP4 receptor [2]; dose 0.01 mg/kg): 72%
O=C(NC[C@H]1CC[C@H](C(=O)O)CC1)c1cc(Cl)cc2ccn(CCOc3ccc(Cl)cc3)c12 [Example 210],1.3,Inhibitory rate (%) (rat EP4 receptor [2]; dose 0.03 mg/kg): 67%
C[C@H](NC(=O)c1cccc2ccn(CCOC3CCCCC3)c12)c1ccc(C(=O)O)cc1 [Example 164],6.3,
O=C(NC[C@H]1CC[C@H](C(=O)O)CC1)c1cc(Cl)cc2ccn(Cc3ccc(Cl)cc3)c12 [Example 52],1.8,
"C[C@H](NC(=O)c1cccc2ccn(Cc3ccc(-c4ccccc4)nc3)c12)c1ccc(C(=O)O)cc1 [Example 4, 4-{(1S)-1-[({1-[(6-phenylpyridin-3-yl)methyl]-1H-indol-7-yl}carbonyl)amino]ethyl}benzoic acid]",0.82,
O=C(O)c1ccc(CNC(=O)c2cccc3ccn(Cc4cc5ccccc5o4)c23)cc1 [Example 187],0.75,Inhibitory rate (%) (rat EP4 receptor [2]; dose 0.03 mg/kg): 58%
O=C(NC[C@H]1CC[C@H](C(=O)O)CC1)c1c(F)ccc2ccn(Cc3cc4ccccc4cn3)c12 [Example 226],2.8,
O=C(NC[C@H]1CC[C@H](C(=O)O)CC1)c1cc(Cl)cc2ccn(Cc3csc(-c4ccccc4)n3)c12 [Example 209],1.9,

# Further lines, with some results ahead:
Ki (rat EP4 receptor [1]) [nM],SMILES,further results
3,O=C(NC[C@H]1CC[C@H](C(=O)O)CC1)c1cc(C(F)(F)F)cc2ccn(Cc3cnc4ccccc4c3)c12 [Example 217],
3.3,O=C(NC[C@H]1CC[C@H](C(=O)O)CC1)c1cc(C(F)(F)F)cc2ccn(Cc3cccc4cccnc34)c12 [Example 219],
2.1,O=C(NC[C@H]1CC[C@H](C(=O)O)CC1)c1cc(C(F)(F)F)cc2ccn(Cc3cc4ccccc4o3)c12 [Example 228],
16,O=C(NC[C@H]1CC[C@H](C(=O)O)CC1)c1cc(C(F)(F)F)cc2ccn(Cc3cccc4cnccc34)c12 [Example 220],
16,O=C(NC[C@H]1CC[C@H](C(=O)O)CC1)c1cc(C(F)(F)F)cc2ccn(Cc3cccc(Cl)n3)c12 [Example 216],
1.7,Cc1cc(C(=O)NC[C@H]2CC[C@H](C(=O)O)CC2)c2c(ccn2Cc2ccc3ccccc3n2)c1 [Example 96],melting point: 244 to 245 °C (dec.); Inhibitory rate (%) (rat EP4 receptor [2]; dose 0.01 mg/kg): 57%
1.2,O=C(NC[C@H]1CC[C@H](C(=O)O)CC1)c1cccc2ccn(Cc3cc4ccccc4o3)c12 [Example 188],Inhibitory rate (%) (rat EP4 receptor [2]; dose 0.01 mg/kg): 88%
1.4,O=C(NC[C@H]1CC[C@H](C(=O)O)CC1)c1cc(C(F)(F)F)cc2ccn(Cc3cc4cc(Cl)ccc4o3)c12 [Example 231],melting point: 211 to 213 °C
1.7,O=C(NC[C@H]1CC[C@H](C(=O)O)CC1)c1cc(Cl)cc2ccn(Cc3cc4ccccc4o3)c12 [Example 227],melting point: 228 to 230 °C
2,O=C(NC[C@H]1CC[C@H](C(=O)O)CC1)c1cc(C(F)(F)F)cc2ccn(Cc3csc(-c4ccccc4)n3)c12 [Example 213],Inhibitory rate (%) (rat EP4 receptor [2]; dose 0.01 mg/kg): 75%
3.9,O=C(NC[C@H]1CC[C@H](C(=O)O)CC1)c1cc(C(F)(F)F)cc2ccn(Cc3ccc(Cl)cn3)c12 [Example 229],melting point: 224 to 226 °C (dec.)
2.2,O=C(NC[C@H]1CC[C@H](C(=O)O)CC1)c1cc(C(F)(F)F)cc2ccn(Cc3ccc(-c4ccccc4)cn3)c12 [Example 214],Inhibitory rate (%) (rat EP4 receptor [2]; dose 0.01 mg/kg): 62%
1.8,O=C(NC[C@H]1CC[C@H](C(=O)O)CC1)c1cc(Cl)cc2ccn(Cc3cc4ccccc4cn3)c12 [Example 146],Inhibitory rate (%) (rat EP4 receptor [2]; dose 0.01 mg/kg): 88%
2.1,O=C(NC[C@H]1CC[C@H](C(=O)O)CC1)c1cc(F)cc2ccn(Cc3cc4ccccc4cn3)c12 [Example 225],Inhibitory rate (%) (rat EP4 receptor [2]; dose 0.003 mg/kg): 77%
1.4,O=C(NC[C@H]1CC[C@H](C(=O)O)CC1)c1cc(C(F)(F)F)cc2ccn(Cc3ccc(Cl)cc3)c12 [Example 69],
2.1,O=C(NC[C@H]1CC[C@H](C(=O)O)CC1)c1cc(C(F)(F)F)cc2ccn(Cc3cc4ccccc4cn3)c12 [Example 159],Inhibitory rate (%) (rat EP4 receptor [2]; dose 0.03 mg/kg): 68%
3.5,O=C(NC[C@H]1CC[C@H](C(=O)O)CC1)c1cc(C(F)(F)F)cc2ccn(Cc3ccc4ccncc4c3)c12 [Example 223],
2.8,O=C(NC[C@H]1CC[C@H](C(=O)O)CC1)c1cc(C(F)(F)F)cc2ccn(Cc3ccc4ncccc4c3)c12 [Example 222],
2.9,O=C(NC[C@H]1CC[C@H](C(=O)O)CC1)c1cc(C(F)(F)F)cc2ccn(Cc3ccc4cccnc4c3)c12 [Example 218],
